In article PMC5470052, “Brain Activation by H1 Antihistamines Challenges Conventional View of Their Mechanism of Action in Motion Sickness: A Behavioral, c-Fos and Physiological Study in Suncus murinus (House Musk Shrew)” (Frontiers in Physiology, 2017):

Test system: T1, histamine H1 receptor
T1 construct: gene HRH1; native receptor in isolated ileal segments
Experiment: organ bath, antagonism of histamine-induced contraction of isolated ileum; double reciprocal analysis
Parameters: species or system Suncus murinus

O=C(O)COCCN1CCN(C(c2ccccc2)c2ccc(Cl)cc2)CC1 (stereo not shown) [cetirizine]
Kb: 8.4 pKb
